Assays:
[1] = system: PKB Ser473 phosphorylation in Rat1-myr-HA-p110 delta cells; assay: Reverse protein array assay, PKB Ser473 phosphorylation in Rat1-myr-p110 delta cells; format: cell-based; settings: read-out: p-PKB IC50
Summary of the method: (§1)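 After at least 20 h of culture, the p110 isoform-transfected Rat1 lines receive compound in an 8-step dilution series, keeping DMSO at 0.2%, for 30 minutes. Cells are then lysed and lysates arrayed on chips for fluorescence detection of Ser473-phosphorylated PKB.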

PI3K beta = biological target: T1, PI3K beta (Homo sapiens, UniProt P42338); assay: PI3K beta kinase assay (Kinase-Glo luminescence); format: biochemical
T1 construct: for the full-length p110-b subunit are generated and fused by overlapping PCR; p85(iSH2) fusion partner (see partner chain) (N); His tag (C); made in house; host or cells: baculovirus; Tn5 (Trichoplusia ni) or TiniPro insect cells
T1 sequence (P42338 with tags, fused parts or gaps limits assumed): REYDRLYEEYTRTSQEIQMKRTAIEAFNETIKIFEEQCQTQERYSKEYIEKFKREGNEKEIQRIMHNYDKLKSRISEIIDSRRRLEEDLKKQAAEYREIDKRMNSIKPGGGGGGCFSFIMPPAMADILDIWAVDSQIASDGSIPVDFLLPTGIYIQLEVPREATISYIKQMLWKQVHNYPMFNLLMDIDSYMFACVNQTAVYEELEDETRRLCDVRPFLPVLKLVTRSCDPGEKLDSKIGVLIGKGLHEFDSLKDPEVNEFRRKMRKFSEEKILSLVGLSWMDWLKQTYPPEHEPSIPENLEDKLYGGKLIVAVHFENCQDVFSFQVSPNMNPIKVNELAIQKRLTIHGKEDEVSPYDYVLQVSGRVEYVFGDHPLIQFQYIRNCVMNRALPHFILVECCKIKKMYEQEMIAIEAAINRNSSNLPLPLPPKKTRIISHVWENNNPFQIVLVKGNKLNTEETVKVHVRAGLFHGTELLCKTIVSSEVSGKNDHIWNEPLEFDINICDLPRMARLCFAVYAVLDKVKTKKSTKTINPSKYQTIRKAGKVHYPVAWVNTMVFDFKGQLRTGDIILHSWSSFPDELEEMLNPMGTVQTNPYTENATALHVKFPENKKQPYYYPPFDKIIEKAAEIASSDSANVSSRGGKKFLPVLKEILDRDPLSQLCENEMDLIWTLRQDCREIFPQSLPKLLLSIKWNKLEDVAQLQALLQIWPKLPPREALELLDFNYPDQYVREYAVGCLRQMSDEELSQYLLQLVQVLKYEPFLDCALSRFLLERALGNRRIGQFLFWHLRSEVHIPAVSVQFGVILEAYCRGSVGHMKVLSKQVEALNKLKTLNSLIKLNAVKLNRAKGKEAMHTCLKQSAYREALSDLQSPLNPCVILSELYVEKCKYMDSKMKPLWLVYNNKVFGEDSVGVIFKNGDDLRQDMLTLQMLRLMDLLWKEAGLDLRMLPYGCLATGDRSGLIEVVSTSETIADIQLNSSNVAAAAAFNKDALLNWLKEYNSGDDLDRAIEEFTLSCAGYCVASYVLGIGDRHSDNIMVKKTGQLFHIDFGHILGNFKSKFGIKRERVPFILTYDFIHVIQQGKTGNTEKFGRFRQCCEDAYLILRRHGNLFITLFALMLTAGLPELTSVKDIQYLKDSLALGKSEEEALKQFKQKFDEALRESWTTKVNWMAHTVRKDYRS
Summary of the method: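 Kinase-Glo luminescence after a 60 min room-temperature reaction gives remaining ATP. The reaction holds 25 nM p85(iSH2)-p110β full-length His-tagged construct, 1 μM ATP, 10 μg/mL PI, and eight compound concentrations at 0.45% DMSO final. IC50 values come from a four-parameter logistic fit.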

PI3K delta = biological target: T2, PI3K delta (Homo sapiens, UniProt O00329); assay: PI3K delta kinase assay (Kinase-Glo luminescence); format: biochemical
T2 construct: for the full-length p110-d subunit are generated and fused by overlapping PCR; p85(iSH2) fusion partner (see partner chain) (N); His tag (C); made in house; host or cells: baculovirus; Tn5 (Trichoplusia ni) or TiniPro insect cells
T2 sequence (O00329 with tags, fused parts or gaps limits assumed): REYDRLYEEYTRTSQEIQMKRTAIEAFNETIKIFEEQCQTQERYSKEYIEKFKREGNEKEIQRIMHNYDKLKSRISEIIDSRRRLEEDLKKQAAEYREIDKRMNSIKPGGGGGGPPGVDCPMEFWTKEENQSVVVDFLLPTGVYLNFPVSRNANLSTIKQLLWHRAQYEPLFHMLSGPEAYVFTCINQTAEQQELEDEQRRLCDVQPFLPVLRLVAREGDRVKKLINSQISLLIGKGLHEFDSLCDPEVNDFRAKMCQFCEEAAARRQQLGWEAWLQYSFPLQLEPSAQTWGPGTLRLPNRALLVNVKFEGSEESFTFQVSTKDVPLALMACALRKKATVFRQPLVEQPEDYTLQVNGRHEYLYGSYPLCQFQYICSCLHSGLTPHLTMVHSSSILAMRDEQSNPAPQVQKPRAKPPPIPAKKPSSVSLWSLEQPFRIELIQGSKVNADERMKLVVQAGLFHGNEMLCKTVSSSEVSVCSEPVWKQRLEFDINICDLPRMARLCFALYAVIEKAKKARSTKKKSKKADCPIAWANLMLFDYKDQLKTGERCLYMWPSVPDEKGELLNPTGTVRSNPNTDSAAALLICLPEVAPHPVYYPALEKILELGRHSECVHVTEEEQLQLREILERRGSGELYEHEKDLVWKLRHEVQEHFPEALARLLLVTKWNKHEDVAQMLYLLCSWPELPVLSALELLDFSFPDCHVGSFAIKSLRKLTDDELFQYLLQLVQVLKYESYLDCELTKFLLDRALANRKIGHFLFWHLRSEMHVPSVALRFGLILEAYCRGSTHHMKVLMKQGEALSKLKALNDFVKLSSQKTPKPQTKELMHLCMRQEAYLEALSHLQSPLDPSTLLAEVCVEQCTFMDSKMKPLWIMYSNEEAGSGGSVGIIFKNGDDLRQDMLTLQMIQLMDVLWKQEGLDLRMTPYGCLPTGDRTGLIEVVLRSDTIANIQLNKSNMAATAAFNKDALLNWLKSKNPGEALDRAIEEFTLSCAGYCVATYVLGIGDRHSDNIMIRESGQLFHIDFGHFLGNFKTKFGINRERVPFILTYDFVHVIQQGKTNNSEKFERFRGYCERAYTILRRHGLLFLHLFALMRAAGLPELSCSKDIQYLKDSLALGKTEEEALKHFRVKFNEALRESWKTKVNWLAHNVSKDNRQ
Summary of the method: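 Recombinant p85(iSH2)-Gly linker-p110δ full-length construct (BV1060, C-terminal His tag) was used at 10 nM with 10 μg/mL phosphatidylinositol and 1 μM ATP in 10 mM Tris-HCl pH 7.5, 3 mM MgCl2, 50 mM NaCl, 0.05% CHAPS, 1 mM DTT. After 60 min at room temperature, remaining ATP was measured by Kinase-Glo luminescence.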

[2] = system: PKB Ser473 phosphorylation in Rat1-myr-HA-p110 beta cells; assay: Reverse protein array assay, PKB Ser473 phosphorylation in Rat1-myr-p110 beta cells; format: cell-based; settings: 0.5 h, pAkt Ser473, 30 minutes incubation, read-out: p-PKB IC50
Summary of the method: as §1

| Compound | IC50 [1] | IC50 (PI3K beta) | IC50 (PI3K delta) | IC50 [2] |
| --- | --- | --- | --- | --- |
| CN(C)c1ccc(-c2ccc3ncc4c(c3c2)n(-c2cn(C)nc2Cl)c(=O)n4C)cn1 [Example 4.9, 1-(3-Chloro-1-methyl-1H-pyrazol-4-yl)-8-(6-dimethylamino-pyridin-3-yl)-3-methyl-1,3-dihydro-imidazo[4,5-c]quinolin-2-one] | 0.008 µM | 0.059 µM | 0.012 µM | 0.006 µM |
| CN(C)c1ncc(-c2ccc3ncc4c(c3c2)n(-c2cn(C)nc2Cl)c(=O)n4C)cn1 [Example 6.3, 1-(3-Chloro-1-methyl-1H-pyrazol-4-yl)-8-(2-dimethylamino-pyrimidin-5-yl)-3-methyl-1,3-dihydro-imidazo[4,5-c]quinolin-2-one] | 0.024 µM | 0.051 µM | 0.007 µM | 0.015 µM |
| Cc1nn(C)cc1-n1c(=O)n(C)c2cnc3ccc(-c4cnc(N)c(C(F)(F)F)c4)cc3c21 [Example 25.1, 8-(6-Amino-5-trifluoromethyl-pyridin-3-yl)-1-(1,3-dimethyl-1H-pyrazol-4-yl)-3-methyl-1,3-dihydro-imidazo[4,5-c]quinolin-2-one] | 0.009 µM | 0.019 µM | 0.013 µM | 0.006 µM |
| Cc1cc(-n2c(=O)n(C)c3cnc4ccc(-c5cnc(N)c(C(F)(F)F)c5)cc4c32)n(C)n1 [Example 25.6, 8-(6-Amino-5-trifluoromethyl-pyridin-3-yl)-1-(2,5-dimethyl-2H-pyrazol-3-yl)-3-methyl-1,3-dihydro-imidazo[4,5-c]quinolin-2-one] | 0.032 µM | 0.133 µM | 0.032 µM | 0.015 µM |
| CNS(=O)(=O)c1cccc(-c2ccc3ncc4c(c3c2)n(-c2cn(C)nc2C)c(=O)n4C)c1 [Example 39, 3-[1-(1,3-Dimethyl-1H-pyrazol-4-yl)-3-methyl-2-oxo-2,3-dihydro-1H-imidazo[4,5-c]quinolin-8-yl]-N-methyl-benzenesulfonamide] | 0.084 µM | 0.013 µM | 0.003 µM | 0.064 µM |
| Cc1nn(C)cc1-n1c(=O)n(C)c2cnc3ccc(-c4cccc(NS(C)(=O)=O)c4)cc3c21 [Example 47, N-{3-[1-(1,3-dimethyl-1H-pyrazol-4-yl)-3-methyl-2-oxo-2,3-dihydro-1H-imidazo[4,5-c]quinolin-8-yl]-phenyl}-methanesulfonamide] | 0.839 µM | 0.811 µM | 0.178 µM | 0.196 µM |
| CC(C)Oc1cncc(-c2ccc3ncc4c(c3c2)n(-c2cn(C)nc2Cl)c(=O)n4C)c1 [Example 58.2, 1-(3-Chloro-1-methyl-1H-pyrazol-4-yl)-8-(5-isopropoxy-pyridin-3-yl)-3-methyl-1,3-dihydro-imidazo[4,5-c]quinolin-2-one] | 0.012 µM | 0.005 µM | 0.004 µM | 0.014 µM |
| Cc1nn(C)cc1-n1c(=O)n(C)c2cnc3ccc(-c4cncc(OC5CCC5)c4)cc3c21 [Example 60.1, 8-(5-Cyclobutoxy-pyridin-3-yl)-1-(1,3-dimethyl-1H-pyrazol-4-yl)-3-methyl-1,3-dihydro-imidazo[4,5-c]quinolin-2-one] | 0.033 µM | 0.003 µM | < 0.003 µM | 0.023 µM |
| Cc1nn(C)cc1-n1c(=O)n(C)c2cnc3ccc(-c4ccc(-c5ncc[nH]5)cc4)cc3c21 [Example 77, 1-(1,3-Dimethyl-1H-pyrazol-4-yl)-8-[4-(1H-imidazol-2-yl)-phenyl]-3-methyl-1,3-dihydro-imidazo[4,5-c]quinolin-2-one] | 0.022 µM | 0.024 µM | 0.008 µM | 0.008 µM |
| Cc1nn(C)cc1-n1c(=O)n(C)c2cnc3ccc(-c4cccc(OC(C)C)c4)cc3c21 [Example 82, 1-(1,3-Dimethyl-1H-pyrazol-4-yl)-8-(3-isopropoxy-phenyl)-3-methyl-1,3-dihydro-imidazo[4,5-c]quinolin-2-one] | 0.314 µM | 0.154 µM | 0.077 µM | 0.284 µM |
| CCN(CC)c1cncc(-c2ccc3ncc4c(c3c2)n(-c2cn(C)nc2C)c(=O)n4C)c1 [Example 95, 8-(5-Diethylamino-pyridin-3-yl)-1-(1,3-dimethyl-1H-pyrazol-4-yl)-3-methyl-1,3-dihydro-imidazo[4,5-c]quinolin-2-one] | 0.025 µM | 0.041 µM | 0.024 µM | 0.017 µM |
| Cc1nn(C)cc1-n1c(=O)n(C)c2cnc3ccc(-c4ccc(N5CCCC5)nc4)cc3c21 [Example 97, 1-(1,3-Dimethyl-1H-pyrazol-4-yl)-3-methyl-8-(6-pyrrolidin-1-yl-pyridin-3-yl)-1,3-dihydro-imidazo[4,5-c]quinolin-2-one] | 0.03 µM | – | 0.236 µM | 0.017 µM |
| CNc1ncc(-c2ccc3ncc4c(c3c2)n(-c2cn(C)nc2Cl)c(=O)n4C)cc1C [Example 119, 1-(3-Chloro-1-methyl-1H-pyrazol-4-yl)-3-methyl-8-(5-methyl-6-methylamino-pyridin-3-yl)-1,3-dihydro-imidazo[4,5-c]quinolin-2-one] | 0.007 µM | 0.02 µM | 0.009 µM | 0.01 µM |
| Cc1nn(C)cc1-n1c(=S)n(C)c2cnc3ccc(-c4cccnc4)cc3c21 [Example 128.1, 1-(1,3-Dimethyl-1H-pyrazol-4-yl)-3-methyl-8-pyridin-3-yl-1,3-dihydro-imidazo[4,5-c]quinoline-2-thione] | 0.127 µM | 0.035 µM | 0.022 µM | 0.027 µM |
| COc1ccc(-c2ccc3ncc4c(c3c2)n(-c2cn(C)nc2C)c(=S)n4C)cc1OC [Example 128.2, 8-(3,4-Dimethoxy-phenyl)-1-(1,3-dimethyl-1H-pyrazol-4-yl)-3-methyl-1,3-dihydro-imidazo[4,5-c]quinoline-2-thione] | 0.01 µM | 0.017 µM | 0.011 µM | 0.006 µM |
| CNc1ncc(-c2ccc3ncc4c(c3c2)n(-c2cn(C(C)C)nc2C)c(=O)n4C)cc1C(F)(F)F [Example 144.2, 1-(1-Isopropyl-3-methyl-1H-pyrazol-4-yl)-3-methyl-8-(6-methylamino-5-trifluoromethyl-pyridin-3-yl)-1,3-dihydro-imidazo[4,5-c]quinolin-2-one] | 0.012 µM | 0.04 µM | 0.004 µM | 0.012 µM |
| CCNc1ncc(-c2ccc3ncc4c(c3c2)n(-c2cn(C)nc2C)c(=O)n4C)cc1C(F)(F)F [Example 145.2, 1-(1,3-Dimethyl-1H-pyrazol-4-yl)-8-(6-ethylamino-5-trifluoromethyl-pyridin-3-yl)-3-methyl-1,3-dihydro-imidazo[4,5-c]quinolin-2-one] | 0.042 µM | 0.05 µM | 0.009 µM | 0.013 µM |
| CCn1cc(-n2c(=O)n(C)c3cnc4ccc(-c5cnc(N)c(Cl)c5)cc4c32)c(C)n1 [Example 148.3, 8-(6-Amino-5-chloro-pyridin-3-yl)-1-(1-ethyl-3-methyl-1H-pyrazol-4-yl)-3-methyl-1,3-dihydro-imidazo[4,5-c]quinolin-2-one] | 0.014 µM | 0.003 µM | 0.013 µM | 0.01 µM |
| Cc1cc(-n2c(=O)n(C)c3cnc4ccc(-c5cnc(F)c(N)c5)cc4c32)n(C)n1 [Example 149.3, 8-(5-Amino-6-fluoro-pyridin-3-yl)-1-(2,5-dimethyl-2H-pyrazol-3-yl)-3-methyl-1,3-dihydro-imidazo[4,5-c]quinolin-2-one] | 0.168 µM | 0.202 µM | 0.038 µM | 0.084 µM |
| Cc1nn(C(C)C)cc1-n1c(=O)n(C)c2cnc3ccc(-c4cnc(Cl)c(N)c4)cc3c21 [Example 152.1, 8-(5-Amino-6-chloro-pyridin-3-yl)-1-(1-isopropyl-3-methyl-1H-pyrazol-4-yl)-3-methyl-1,3-dihydro-imidazo[4,5-c]quinolin-2-one] | 0.016 µM | 0.079 µM | 0.008 µM | 0.006 µM |
| Cc1nn(C)c(C)c1-n1c(=O)n(C)c2cnc3ccc(-c4cnc(Cl)c(N)c4)cc3c21 [Example 152.3, 8-(5-Amino-6-chloro-pyridin-3-yl)-3-methyl-1-(1,3,5-trimethyl-1H-pyrazol-4-yl)-1,3-dihydro-imidazo[4,5-c]quinolin-2-one] | 0.078 µM | 0.079 µM | 0.007 µM | 0.113 µM |
| CCOCc1cc(-c2ccc3ncc4c(c3c2)n(-c2cn(C(C)C)nc2C)c(=O)n4C)cnc1N [Example 166.3, 8-(6-Amino-5-ethoxymethyl-pyridin-3-yl)-1-(1-isopropyl-3-methyl-1H-pyrazol-4-yl)-3-methyl-1,3-dihydro-imidazo[4,5-c]quinolin-2-one] | 0.111 µM | 0.081 µM | 0.006 µM | 0.119 µM |

From patent US20140005163A1 (NOVARTIS AG, priority 2010, published 2014)
